In ChEMBL document CHEMBL1201862, “PubChem BioAssay data set” (2004):
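A five-concentration, 48-hour dose response in 96-well plates underlies each endpoint, interpolated linearly between surrounding concentrations. GI50 marks 50% less growth.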 Calls of active or inactive are those of the source. Cut-off read from the data, not from the text of the source: active = GI50 up to about 1.1 µM and inactive = higher.

What was measured:
Test in all cases: NCI anticancer screen, dose series, 48 h
786-0 = test system: 786-0
A498 = test system: A498
A549 = test system: A549
ACHN = test system: ACHN
BT-549 = test system: BT-549
CAKI-1 = test system: CAKI-1
CCRF-CEM = test system: CCRF-CEM
COLO 205 = test system: COLO 205
DU-145 = test system: DU-145
EKVX = test system: EKVX
HCC 2998 = test system: HCC 2998
HCT-116 = test system: HCT-116
HCT-15 = test system: HCT-15
HL-60 = test system: HL-60
HOP-62 = test system: HOP-62
HOP-92 = test system: HOP-92
HT-29 = test system: HT-29
Hs-578T = test system: Hs-578T
IGROV-1 = test system: IGROV-1
K562 = test system: K562
KM12 = test system: KM12
LOX IMVI = test system: LOX IMVI
M14 = test system: M14
MCF7 = test system: MCF7
MDA-MB-231 = test system: MDA-MB-231
MDA-MB-435 = test system: MDA-MB-435
MDA-N = test system: MDA-N
MOLT-4 = test system: MOLT-4
NCI-H23 = test system: NCI-H23
NCI-H460 = test system: NCI-H460
NCI-H522 = test system: NCI-H522
NCI/ADR-RES = test system: NCI/ADR-RES
OVCAR-3 = test system: OVCAR-3
OVCAR-4 = test system: OVCAR-4
OVCAR-5 = test system: OVCAR-5
OVCAR-8 = test system: OVCAR-8
PC-3 = test system: PC-3
RXF 393 = test system: RXF 393
SF-268 = test system: SF-268
SF-295 = test system: SF-295
SF-539 = test system: SF-539
SK-MEL-28 = test system: SK-MEL-28
SK-MEL-2 = test system: SK-MEL-2
SK-MEL-5 = test system: SK-MEL-5
SN12C = test system: SN12C
SNB-19 = test system: SNB-19
SNB-75 = test system: SNB-75
SR = test system: SR
SW-620 = test system: SW-620
T47D = test system: T47D
TK-10 = test system: TK-10
U-251 = test system: U-251
UACC-257 = test system: UACC-257
UACC-62 = test system: UACC-62
UO-31 = test system: UO-31
Malme-3M = test system: Malme-3M
NCI-H226 = test system: NCI-H226
RPMI-8226 = test system: RPMI-8226
SK-OV-3 = test system: SK-OV-3

`CC(Nc1cc(=O)n(C)c(=O)[nH]1)c1ccccc1` (stereo unspecified) was tested, and the GI50 (786-0) was > 100 µM (inactive), the GI50 (A498) was > 100 µM (inactive) and the GI50 (A549) was > 100 µM (inactive). For the same compound, the GI50 (ACHN) was > 100 µM (inactive), the GI50 (BT-549) was > 100 µM (inactive) and the GI50 (CAKI-1) was > 100 µM (inactive). The GI50 (CCRF-CEM) was > 100 µM (inactive), the GI50 (COLO 205) was > 100 µM (inactive) and the GI50 (DU-145) was > 100 µM (inactive). The GI50 (EKVX) was > 100 µM (inactive), the GI50 (HCC 2998) was > 100 µM (inactive) and the GI50 (HCT-116) was > 100 µM (inactive). The GI50 (HCT-15) was over 100 µM, the GI50 (HL-60) was > 100 µM (inactive) and the GI50 (HOP-62) was > 100 µM (inactive). The GI50 (HOP-92) was 15.5 µM (inactive), the GI50 (HT-29) was > 100 µM (inactive) and the GI50 (Hs-578T) was > 100 µM (inactive). The GI50 (IGROV-1) was > 100 µM (inactive), the GI50 (K562) was > 100 µM (inactive) and the GI50 (KM12) was > 100 µM (inactive). For the same compound, the GI50 (LOX IMVI) was > 100 µM (inactive), the GI50 (M14) was > 100 µM (inactive) and the GI50 (MCF7) was > 100 µM (inactive). For the same compound, the GI50 (MDA-MB-231) was > 100 µM (inactive), the GI50 (MDA-MB-435) was > 100 µM (inactive) and the GI50 (MDA-N) was > 100 µM (inactive). The GI50 (MOLT-4) was > 100 µM (inactive), the GI50 (NCI-H23) was > 100 µM (inactive) and the GI50 (NCI-H460) was > 100 µM (inactive). The GI50 (NCI-H522) was > 100 µM (inactive), the GI50 (NCI/ADR-RES) was > 100 µM (inactive) and the GI50 (OVCAR-3) was > 100 µM (inactive). For the same compound, the GI50 (OVCAR-4) was > 100 µM (inactive), the GI50 (OVCAR-5) was > 100 µM (inactive) and the GI50 (OVCAR-8) was > 100 µM (inactive). The GI50 (PC-3) was > 100 µM (inactive), the GI50 (RXF 393) was > 100 µM (inactive) and the GI50 (SF-268) was > 100 µM (inactive). For the same compound, the GI50 (SF-295) was > 100 µM (inactive), the GI50 (SF-539) was > 100 µM (inactive) and the GI50 (SK-MEL-28) was > 100 µM (inactive). For the same compound, the GI50 (SK-MEL-2) was > 100 µM (inactive), the GI50 (SK-MEL-5) was > 100 µM (inactive) and the GI50 (SN12C) was > 100 µM (inactive). The GI50 (SNB-19) was > 100 µM (inactive), the GI50 (SNB-75) was > 100 µM (inactive) and the GI50 (SR) was > 100 µM (inactive). The GI50 (SW-620) was > 100 µM (inactive), the GI50 (T47D) was > 100 µM (inactive) and the GI50 (TK-10) was > 100 µM (inactive). For the same compound, the GI50 (U-251) was > 100 µM (inactive), the GI50 (UACC-257) was > 100 µM (inactive) and the GI50 (UACC-62) was > 100 µM (inactive). For the same compound, the GI50 (UO-31) was > 100 µM (inactive).

In the case of `O=C1C(O)=C(C(C2=C(O)C(=O)c3ccccc3C2=O)c2ccc(Cl)cc2)C(=O)c2ccccc21`, the GI50 (786-0) is reported as 3.33 µM (inactive), the GI50 (A498) is reported as 18.4 µM (inactive) and the GI50 (A549) is reported as 19.3 µM (inactive). For the same compound, the GI50 (ACHN) was 6.46 µM (inactive), the GI50 (BT-549) was 15.6 µM (inactive) and the GI50 (CAKI-1) was 9.4 µM (inactive). The GI50 (CCRF-CEM) was 6.4 µM (inactive), the GI50 (COLO 205) was 18.6 µM (inactive) and the GI50 (DU-145) was 5.42 µM (inactive). The GI50 (EKVX) was 13.6 µM (inactive), the GI50 (HCT-116) was 6.34 µM (inactive) and the GI50 (HCT-15) was 9.12 µM. The GI50 (HL-60) was 1.66 µM (inactive), the GI50 (HOP-62) was 6.47 µM (inactive) and the GI50 (HOP-92) was 14.3 µM (inactive). The GI50 (HT-29) was 7.87 µM (inactive), the GI50 (Hs-578T) was 14.7 µM (inactive) and the GI50 (IGROV-1) was 8.2 µM (inactive). The GI50 (K562) was 15.2 µM (inactive), the GI50 (KM12) was 8.97 µM (inactive) and the GI50 (LOX IMVI) was 2.64 µM (inactive). For the same compound, the GI50 (M14) was 9.59 µM (inactive), the GI50 (MCF7) was 5.13 µM (inactive) and the GI50 (MDA-MB-231) was 3.15 µM (inactive). For the same compound, the GI50 (MDA-MB-435) was 1.83 µM (inactive), the GI50 (MDA-N) was 1.83 µM (inactive) and the GI50 (MOLT-4) was 4.56 µM (inactive). For the same compound, the GI50 (Malme-3M) was 5.25 µM (inactive), the GI50 (NCI-H226) was 28.9 µM (inactive) and the GI50 (NCI-H23) was 4.85 µM (inactive). For the same compound, the GI50 (NCI-H460) was 14 µM (inactive), the GI50 (NCI-H522) was 8.95 µM (inactive) and the GI50 (NCI/ADR-RES) was 11.6 µM (inactive). The GI50 (OVCAR-3) was 4.93 µM (inactive), the GI50 (OVCAR-4) was 6.24 µM (inactive) and the GI50 (OVCAR-5) was 7.93 µM (inactive). For the same compound, the GI50 (OVCAR-8) was 8.75 µM (inactive), the GI50 (PC-3) was 18.8 µM (inactive) and the GI50 (RPMI-8226) was 9.86 µM (inactive). The GI50 (RXF 393) was 7.13 µM (inactive), the GI50 (SF-268) was 10.4 µM (inactive) and the GI50 (SF-295) was 5.78 µM (inactive). For the same compound, the GI50 (SF-539) was 18 µM (inactive), the GI50 (SK-MEL-28) was 28.1 µM (inactive) and the GI50 (SK-MEL-2) was 8.36 µM (inactive). The GI50 (SK-MEL-5) was 6.67 µM (inactive), the GI50 (SK-OV-3) was 17.7 µM (inactive) and the GI50 (SN12C) was 1.71 µM (inactive). The GI50 (SNB-19) was 19.5 µM (inactive), the GI50 (SNB-75) was 2.5 µM (inactive) and the GI50 (SR) was 3.18 µM (inactive). The GI50 (SW-620) was 4.69 µM (inactive), the GI50 (T47D) was 21 µM (inactive) and the GI50 (TK-10) was 14.7 µM (inactive). For the same compound, the GI50 (U-251) was 6.24 µM (inactive), the GI50 (UACC-257) was 5 µM (inactive) and the GI50 (UACC-62) was 9.75 µM (inactive). For the same compound, the GI50 (UO-31) was 10.1 µM (inactive).

With `COc1cc2c(cc1OC)C13CCN4C=C5CCOC6CC(=O)N2C1C6C5CC43` (stereo unspecified) the GI50 (786-0) was > 100 µM (inactive), the GI50 (A498) was > 100 µM (inactive) and the GI50 (A549) was > 100 µM (inactive). The GI50 (ACHN) was > 100 µM (inactive), the GI50 (BT-549) was > 100 µM (inactive) and the GI50 (CAKI-1) was > 100 µM (inactive). For the same compound, the GI50 (CCRF-CEM) was > 100 µM (inactive), the GI50 (COLO 205) was > 100 µM (inactive) and the GI50 (DU-145) was > 100 µM (inactive). The GI50 (EKVX) was > 100 µM (inactive), the GI50 (HCT-116) was > 100 µM (inactive) and the GI50 (HCT-15) was over 100 µM. The GI50 (HL-60) was > 100 µM (inactive), the GI50 (HOP-62) was > 100 µM (inactive) and the GI50 (HOP-92) was > 100 µM (inactive). For the same compound, the GI50 (HT-29) was > 100 µM (inactive), the GI50 (Hs-578T) was > 100 µM (inactive) and the GI50 (IGROV-1) was > 100 µM (inactive). The GI50 (K562) was > 100 µM (inactive), the GI50 (KM12) was > 100 µM (inactive) and the GI50 (LOX IMVI) was > 100 µM (inactive). The GI50 (M14) was > 100 µM (inactive), the GI50 (MCF7) was > 100 µM (inactive) and the GI50 (MDA-MB-231) was > 100 µM (inactive). The GI50 (MDA-MB-435) was > 100 µM (inactive), the GI50 (MDA-N) was > 100 µM (inactive) and the GI50 (MOLT-4) was > 100 µM (inactive). The GI50 (Malme-3M) was > 100 µM (inactive), the GI50 (NCI-H226) was > 100 µM (inactive) and the GI50 (NCI-H23) was > 100 µM (inactive). The GI50 (NCI-H460) was > 100 µM (inactive), the GI50 (NCI-H522) was > 100 µM (inactive) and the GI50 (NCI/ADR-RES) was > 100 µM (inactive). For the same compound, the GI50 (OVCAR-3) was > 100 µM (inactive), the GI50 (OVCAR-4) was > 100 µM (inactive) and the GI50 (OVCAR-5) was > 100 µM (inactive). The GI50 (OVCAR-8) was > 100 µM (inactive), the GI50 (PC-3) was > 100 µM (inactive) and the GI50 (RPMI-8226) was > 100 µM (inactive). For the same compound, the GI50 (RXF 393) was > 100 µM (inactive), the GI50 (SF-268) was > 100 µM (inactive) and the GI50 (SF-295) was > 100 µM (inactive). For the same compound, the GI50 (SF-539) was > 100 µM (inactive), the GI50 (SK-MEL-28) was > 100 µM (inactive) and the GI50 (SK-MEL-2) was > 100 µM (inactive). The GI50 (SK-MEL-5) was > 100 µM (inactive), the GI50 (SK-OV-3) was > 100 µM (inactive) and the GI50 (SN12C) was > 100 µM (inactive). For the same compound, the GI50 (SNB-19) was > 100 µM (inactive), the GI50 (SNB-75) was > 100 µM (inactive) and the GI50 (SR) was > 100 µM (inactive). For the same compound, the GI50 (SW-620) was > 100 µM (inactive), the GI50 (T47D) was > 100 µM (inactive) and the GI50 (TK-10) was > 100 µM (inactive). For the same compound, the GI50 (U-251) was > 100 µM (inactive), the GI50 (UACC-257) was > 100 µM (inactive) and the GI50 (UACC-62) was > 100 µM (inactive). For the same compound, the GI50 (UO-31) was > 100 µM (inactive).
